Results: patent US11459375B2, “Cyclic peptides for the treatment of Graves' disease” (advanceCOR GmbH, priority 2017, dated 2022)
Peptide text beside a SMILES is read from it.

Key:
Type in all cases: in vivo, BALB/c mice
Ad-TSHR-immunized mice [1] = experiment: ECG heart rates in Graves' disease mouse model; settings: 1 mg/kg IV 4-weekly, ECG under anaesthesia
Procedure: (§1) In FIG. 7 the effect of the peptide therapy on heart rates at various times during the experiment (A), and on heart weights (B) and cardiac ventricular volumes (C) at the end of the experiment were evaluated in all animals. The measurements were carried out in Ad-TSHR-immunized mice treated by either 4-weekly injections with vehicle (0.9% NaCl, “Graves' no therapy”, n=25 mice), or administrations of 1 mg/kg body weight of peptide of the invention 836 (12 mice), or of peptide 829 (13 mice), or TSHR-Fc (18 mice). In addition, age-matched immunologically naïve unimmunized mice (“healthy”, 19 animals) were investigated. Data are represented as mean±SEM. Significance over time was tested by analysis of variance (ANOVA) of groups at given time points, and controlled by ANOVA for repeated measurements within one group, followed by LSD post-hoc testing. *p<0.05, and **p<0.005, compared to the TSHR-immunized group treated with only NaCl (“Graves' no therapy”).
When mice were subjected to anaesthesia for immunisation, their heart function was monitored with an electrocardiogram (ECG amplifier module, Harvard Apparatus, Hugo Sachs electronics) and recorded with a special software, which allows to determine the heart rate from the ECG reading (Haemodyn, Hugo Sachs electronics). ECG was also performed in anaesthesia before animals were euthanized for histological exam at the end of the study.

Ad-TSHR-immunized mice [2] = experiment: thyroid size at end of experiment in Graves' disease mouse model; settings: 1 mg/kg IV 4-weekly
Procedure: Representative images are shown. In FIG. 4B, the effects of peptide therapy on thyroid sizes were investigated at the end of the experiment. The measurements were carried out in Ad-TSHR-immunized mice treated by either 4-weekly injections with vehicle (0.9% NaCl, “Graves' no therapy”, n=25 mice), or administrations of 1 mg/kg body weight of peptide of the invention 836 (12 mice), or of peptide 829 (13 mice), or of TSHR-Fc (18 mice), or of control peptide 835 (13 mice). In addition, age-matched immunologically naïve unimmunized mice (“healthy”, 19 animals) were investigated. The mean thyroid sizes in mm^3 are shown with SEM. Differences between groups were tested by AVOVA followed by post hoc LSD testing. ** indicates statistical significance (p<0.001) compared to the TSHR-immunized group treated with only NaCl (“Graves' no therapy”).
(§2) The study protocol used three 3-weekly immunizations (“initiation”) and followed by a “maintenance” phase with further regular 4-weekly boosts until the 9th immunisation, as described before (22). Mice were randomly assigned to therapeutic groups. Therapy (either 1 mg/kg body weight peptides or 0.9% NaCl vehicle control) was given 1 week after the 4th immunization by IV injection into a tail vein, and then continued at 4-weekly intervals, as described before for the treatment of anti-β1AR (16). The fusion protein TSHR-Fc was given IV at identical times at doses of 1 mg/kg, but had to be applied together with the histamine receptor blocker clemastin (Tavegil®) at a dose of 0.02 mg per mouse (25 g body weight) to avoid clinical symptoms of allergic reaction, which had been observed in initial pilot studies of TSHR-Fc administration in mice.
After euthanasia, dissection of the thyroid glands was performed under a stereomicroscope, as described before (22). Briefly, cross cuts at the level above the larynx and below the seventh cartilage ring were made and the glands with the tracheae and oesophagi were removed from the necks. Tissue blocks were kept in 4% neutral para-formaldehyde (PFA), washed in PBS 3 times and embedded in optimum cutting temperature (OCT) formulation (Tissue-Tek® O.C.T.™ compound, VWR Chemicals, Leuven, Belgium). Consecutive 5 μm-thick cross sections were cut at a fixed distance of 500 μm using a Leica microtome CM 1850 Cryostat (temperature at −19° C.) and mounted on Thermo Polysine slides (Thermo Scientific, Cat J2800AMNZ). […] Thyroid volumes (mm^3) were calculated from the sum of the areas of each section over the whole cutting region. Myocardial volumes (mm^3) were calculated in a similar way as described for thyroid glands from the sum of the areas of each section over whole cutting region (5 to 6 slides, depending on respective size of the hearts). […]

Ad-TSHR-immunized mice [3] = experiment: heart weights upon necropsy; settings: 1 mg/kg IV 4-weekly, necropsy at end of experiment
Procedure: as §1
Due to unavailability of some fine histological sections, analysis of this parameter in mice treated with other peptides could unfortunately not be completed.

Ad-TSHR-immunized mice [4] = experiment: serum thyroxin (T4) levels in Graves' disease mouse model; settings: 1 mg/kg IV 4-weekly, after start of therapy (week 11)
Procedure: In FIG. 5 the effects of peptide therapy on serum thyroxin levels were evaluated. The measurements were carried out in Ad-TSHR-immunized mice treated by either 4-weekly injections with vehicle (0.9% NaCl, “Graves' no therapy”, n=25 mice), or administrations of 1 mg/kg body weight of peptide of the invention 836 (12 mice), or of peptide 829 (13 mice), or TSHR-Fc (18 mice), or of control peptide 835 (13 mice). In addition, age-matched immunologically naïve unimmunized mice (“healthy”, 19 animals) were investigated. Data are represented as means±SEM. Significance over time was tested by analysis of variance (ANOVA) of groups at given time points, and controlled by ANOVA for repeated measurements within one group, followed by LSD post-hoc testing. *p<0.05, and **p<0.005, compared to the TSHR-immunized group treated with only NaCl (“Graves' no therapy”).
as §2
Total thyroxine (T4) was measured by immunoassay kit (#T4044T-100, Calbiotech Inc, Austin, Calif.) in duplicate determination.

| Molecule | heart rate (Ad-TSHR-immunized mice [1]) | thyroid size (Ad-TSHR-immunized mice [2]) | heart weights (Ad-TSHR-immunized mice [3]) | serum thyroxin (T4) levels (Ad-TSHR-immunized mice [4]) |
| --- | --- | --- | --- | --- |
| CC[C@H](C)[C@@H]1NC(=O)[C@H](C(C)C)NC(=O)[C@H]([C@@H](C)O)NC(=O)[C@H](CC(C)C)NC(=O)[C@H](Cc2ccc(O)cc2)NC(=O)[C@H](CCCCN)NC(=O)[C@H](CC(N)=O)NC(=O)[C@H](CCCCN)NC(=O)[C@H](CC(N)=O)NC(=O)[C@H](CC(C)C)NC(=O)[C@H](Cc2ccc(O)cc2)NC(=O)[C@H](C(C)C)NC(=O)[C@H](C)NC(=O)[C@H](CC(=O)O)NC(=O)[C@H](CC(C)C)NC(=O)[C@H](CCCCN)NC(=O)[C@H]([C@@H](C)O)NC(=O)CNC(=O)[C@H](CC(N)=O)NC(=O)[C@H](Cc2ccccc2)NC(=O)[C@H](C)NC(=O)[C@H](Cc2ccc(O)cc2)NC(=O)CNC(=O)[C@H](CC(=O)O)NC1=O [peptide 836] (cyclo(GYAFNGTKLDAVYLNKNKYLTVID)) | no further increase, and significantly decreased resting heart rates at later time points | decreased thyroid sizes | significantly reduced heart weights | progressively decreasing T4 levels, which consecutively reverted to normal values |
| TSHR-Fc: fusion protein: first 289 amino acids of human TSH receptor (A-subunit), GGR linker and Fc portion of human IgG2 | no further increase, and significantly decreased resting heart rates at later time points | decreased thyroid sizes | trends towards reduced heart weights which did not reach statistical significance | progressively decreasing T4 levels, which consecutively reverted to normal values |
| SPPCECHQEEDFRVTCKDIQRIPS [peptide 829] | a trend which did not reach statistical significance | a trend which did not reach statistical significance | trends towards reduced heart weights which did not reach statistical significance | a trend which did not reach statistical significance |
